Source: the NIST ThermoML archive (doi:10.1016/j.fluid.2014.04.027)
Numbers after ± are expanded uncertainties.

Test: xn = mol fraction of the nth substance listed
Details: 100 kPa, Liquid, Alternating current cell with electrodes

CCCCCCCCCCCCOS(=O)(=O)[O-].[Na+] [sodium dodecyl sulfate] + O
electrical conductivity [S/m]
Details	298.15 K	308.15 K	318.15 K
x1 = 6.348e-05	0.024 ± 0.00096	0.0249 ± 0.001	0.0283 ± 0.0011
x1 = 6.643e-05	0.0245 ± 0.00098	0.0255 ± 0.001	0.029 ± 0.0012
x1 = 6.967e-05	0.0252 ± 0.001	0.0264 ± 0.0011	0.0298 ± 0.0012
x1 = 7.324e-05	0.0261 ± 0.001	0.0273 ± 0.0011	0.0306 ± 0.0012
x1 = 7.72e-05	0.0269 ± 0.0011	0.0282 ± 0.0011	0.0317 ± 0.0013
x1 = 8.16e-05	0.0278 ± 0.0011	0.0292 ± 0.0012	0.0329 ± 0.0013
x1 = 8.4e-05	0.0284 ± 0.0011	0.0298 ± 0.0012	0.0334 ± 0.0013
x1 = 8.655e-05	0.0291 ± 0.0012	0.0304 ± 0.0012	0.034 ± 0.0014
x1 = 8.925e-05	0.0297 ± 0.0012	0.0311 ± 0.0012	0.0347 ± 0.0014
x1 = 9.213e-05	0.0305 ± 0.0012	0.0317 ± 0.0013	0.0355 ± 0.0014
x1 = 9.519e-05	0.0311 ± 0.0012	0.0323 ± 0.0013	0.0362 ± 0.0014
x1 = 9.847e-05	0.0317 ± 0.0013	0.0332 ± 0.0013	0.0371 ± 0.0015
x1 = 0.000102	0.0327 ± 0.0013	0.0339 ± 0.0014	0.038 ± 0.0015
x1 = 0.0001058	0.0335 ± 0.0013	0.0349 ± 0.0014	0.0389 ± 0.0016
x1 = 0.0001098	0.0345 ± 0.0014	0.0359 ± 0.0014	0.04 ± 0.0016
x1 = 0.0001142	0.0353 ± 0.0014	0.037 ± 0.0015	0.0412 ± 0.0016
x1 = 0.000119	0.0365 ± 0.0015	0.0382 ± 0.0015	0.0424 ± 0.0017
x1 = 0.0001241	0.0375 ± 0.0015	0.0394 ± 0.0016	0.0436 ± 0.0018
x1 = 0.0001298	0.0388 ± 0.0015	0.0408 ± 0.0016	0.045 ± 0.0018
x1 = 0.0001359	0.0401 ± 0.0016	0.0423 ± 0.0017	0.0465 ± 0.0019
x1 = 0.0001427	0.0414 ± 0.0017	0.0439 ± 0.0018	0.0481 ± 0.0019
x1 = 0.0001502	–	0.0455 ± 0.0018	0.0498 ± 0.002
x1 = 0.0001586	–	–	0.052 ± 0.0021
